This note sets out measurements from ChEMBL document CHEMBL1201862, “PubChem BioAssay data set” (2004).

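Following 48 hours of exposure in 96-well plates, responses at five concentrations were used to interpolate endpoints linearly. Abbreviation: GI50, concentration required for 50% inhibition of growth.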 Calls of active or inactive are those of the source. Rule as the data show it: active = GI50 up to about 1.1 µM and inactive = higher.

Test systems include NCI-H460; SF-295; SK-MEL-2; MDA-MB-231; LOX IMVI; Hs-578T; MDA-N; MCF7; HCT-116; PC-3; TK-10; NCI-H522; UO-31; OVCAR-3; NCI/ADR-RES; HOP-62; UACC-257; RPMI-8226; HCT-15; SK-MEL-28.
Common to all, as to test: NCI tumour cell line growth inhibition, 48 h

For `COc1cc2c(C)cc(O)cc2c2cc(O)c(C)cc12`, the GI50 was 2.56 µM (inactive) with NCI-H460; 12.9 µM (inactive) with SF-295; 14.8 µM (inactive) in the assay with SK-MEL-2; 9.66 µM (inactive) in the assay on MDA-MB-231; 2.23 µM (inactive) in the assay with LOX IMVI; 19.1 µM (inactive) in the assay with Hs-578T. Besides, the GI50 with MDA-N was 10.2 µM (inactive); in the assay on MCF7, 10.4 µM (inactive); in the assay on HCT-116, 10.7 µM (inactive); in the assay with PC-3, 9.57 µM (inactive); in the assay with TK-10, 13.3 µM (inactive); in the assay with NCI-H522 it was 13.7 µM (inactive). The GI50 with UO-31 is 9.66 µM (inactive); with OVCAR-3, 12 µM (inactive); in the assay on NCI/ADR-RES it was 13.5 µM (inactive); in the assay on HOP-62 it was 5.57 µM (inactive); with UACC-257, 12.5 µM (inactive); in the assay on RPMI-8226 it was 1.91 µM (inactive). Besides, the GI50 in the assay with HCT-15 was 8.55 µM.

With `CN1CC2=C(N=C(S)NC2c2ccccc2Cl)/C(=C/c2ccccc2Cl)C1` (stereo not given), the GI50 is > 100 µM (inactive) in the assay with NCI-H460; 53.5 µM (inactive) in the assay on SF-295; 69 µM (inactive) in the assay with SK-MEL-2; 26.2 µM (inactive) in the assay with MDA-MB-231; 51.1 µM (inactive) in the assay with LOX IMVI; > 100 µM (inactive) in the assay with Hs-578T. For the same compound, the GI50 is 60.3 µM (inactive) in the assay with MDA-N; > 100 µM (inactive) in the assay on MCF7; 30.9 µM (inactive) with HCT-116; 26.5 µM (inactive) in the assay on PC-3; 71.3 µM (inactive) in the assay with TK-10; 29.6 µM (inactive) in the assay on NCI-H522. The GI50 is 25.6 µM (inactive) in the assay with UO-31; 21.5 µM (inactive) with OVCAR-3; 30.5 µM (inactive) with NCI/ADR-RES; > 100 µM (inactive) in the assay on HOP-62; 55.8 µM (inactive) in the assay on UACC-257; > 100 µM (inactive) in the assay on SK-MEL-28. Besides, the GI50 in the assay on HCT-15 is 64.1 µM.

In the case of `O=C(O)CCCc1ccc2c(c1)CC1(C2)Cc2ccc(CCCC(=O)O)cc2C1`, the GI50 in the assay on SF-295, in the assay with SK-MEL-2, in the assay with MDA-MB-231, with LOX IMVI, in the assay with Hs-578T and in the assay on MDA-N was > 100 µM (inactive) in each case. In addition, the GI50 with MCF7, with HCT-116, in the assay with PC-3, in the assay with TK-10, with NCI-H522 and in the assay on UO-31 was > 100 µM (inactive) each time. Besides, the GI50 in the assay on OVCAR-3 is > 100 µM (inactive); in the assay with NCI/ADR-RES, > 100 µM (inactive); in the assay with HOP-62, > 100 µM (inactive); in the assay on UACC-257 it was > 100 µM (inactive); with RPMI-8226 it was > 100 µM (inactive); in the assay on HCT-15 it was more than 100 µM.

`CC1(C)CC[C@]2(C(=O)O)CC[C@]3(C)C(=CC[C@@H]4[C@@]5(C)CC[C@H](OC6OC(C(=O)O)C(O)C(O)C6O)C(C)(C)[C@@H]5CC[C@]43C)[C@@H]2C1` (stereo not given in full): the GI50 with NCI-H460 was 18.7 µM (inactive); in the assay with SF-295, 15.2 µM (inactive); in the assay on SK-MEL-2, 15.4 µM (inactive); in the assay with MDA-MB-231, 18.2 µM (inactive); in the assay on LOX IMVI, 19 µM (inactive); in the assay on Hs-578T it was 21.5 µM (inactive). Also, the GI50 in the assay on MDA-N is 18.4 µM (inactive); in the assay with MCF7 it was 24.9 µM (inactive); with HCT-116 it was 16.8 µM (inactive); in the assay with PC-3, 18.2 µM (inactive); in the assay with NCI-H522, 19.4 µM (inactive); in the assay on UO-31 it was 19.5 µM (inactive). The GI50 was 14.2 µM (inactive) in the assay on OVCAR-3; 17.7 µM (inactive) in the assay on NCI/ADR-RES; 18.8 µM (inactive) with HOP-62; 16.4 µM (inactive) with UACC-257; 19.8 µM (inactive) in the assay with RPMI-8226; 19.6 µM (inactive) in the assay with SK-MEL-28. Besides, in the assay with HCT-15, the GI50 is 16.9 µM.

On to `CCCC[Si](CCCC)(CCCC)O[C@@H](/C=C/C(=O)OCC)[C@H](Cc1ccccc1)O[Si](CCCC)(CCCC)CCCC`, for which the GI50 with NCI-H460, in the assay on SF-295, with SK-MEL-2, in the assay on MDA-MB-231, with LOX IMVI and in the assay on Hs-578T was > 100 µM (inactive) in each case. Besides, the GI50 with MDA-N is > 100 µM (inactive); with MCF7, > 100 µM (inactive); in the assay on HCT-116, > 100 µM (inactive); with PC-3, > 100 µM (inactive); in the assay with TK-10, 40.1 µM (inactive); with NCI-H522 it was > 100 µM (inactive). In addition, the GI50 with UO-31 was > 100 µM (inactive); in the assay with NCI/ADR-RES it was > 100 µM (inactive); in the assay on HOP-62, > 100 µM (inactive); with UACC-257, > 100 µM (inactive); in the assay with RPMI-8226, > 100 µM (inactive); with HCT-15 it was more than 100 µM.

Turning to `CC[C@@]1(O)C(=O)OCc2c1cc1n(c2=O)Cc2c-1nc1ccccc1c2/C=N\NC(=O)C(C)N` (stereo not given in full), the GI50 in the assay with NCI-H460 was < 0.0243 µM (active); with SF-295 it was < 0.0371 µM (active); in the assay on SK-MEL-2, 13.1 µM (inactive); with MDA-MB-231, 27 µM (inactive); with LOX IMVI it was 0.0254 µM (active); in the assay on Hs-578T, 11.9 µM (inactive). For the same compound, the GI50 is 1.34 µM (inactive) with MDA-N; < 0.022 µM (active) with MCF7; 0.186 µM (active) in the assay on HCT-116; 1.91 µM (inactive) with PC-3; > 29.3 µM (inactive) in the assay on TK-10; 0.432 µM (active) in the assay on NCI-H522. Besides, the GI50 in the assay with UO-31 is 0.182 µM (active); in the assay on OVCAR-3, 7.06 µM (inactive); in the assay with NCI/ADR-RES, 0.241 µM (active); in the assay on HOP-62 it was < 0.0266 µM (active); in the assay on UACC-257, 1.37 µM (inactive); in the assay with SK-MEL-28, 17.8 µM (inactive). In the assay with HCT-15, this compound showed a GI50 of 4.29 µM.

As for `CCC1c2[nH]c3ccccc3c2C[C@H]2C(=O)N3CCC[C@H]3C(=O)N12` (stereo not given in full), the GI50 in the assay on SF-295, in the assay on SK-MEL-2, in the assay with MDA-MB-231, in the assay on LOX IMVI, in the assay on Hs-578T and in the assay with MDA-N was > 100 µM (inactive) in each case. Moreover, the GI50 with MCF7 is > 100 µM (inactive); in the assay with HCT-116, 60.7 µM (inactive); with PC-3 it was 37.4 µM (inactive); in the assay with TK-10, > 100 µM (inactive); in the assay with NCI-H522, 75.7 µM (inactive); in the assay on UO-31 it was > 100 µM (inactive). In addition, the GI50 in the assay with OVCAR-3 was > 100 µM (inactive); in the assay with NCI/ADR-RES it was > 100 µM (inactive); in the assay with HOP-62, > 100 µM (inactive); in the assay on UACC-257 it was 48.6 µM (inactive); in the assay with RPMI-8226, 50.9 µM (inactive); with SK-MEL-28, > 100 µM (inactive). Also, the GI50 in the assay on HCT-15 is 53.7 µM.

For `CC1(C)C2CCC1C(=O)[C@@]1(C=CC(=O)CC1)C2` (stereo not given in full), the GI50 in the assay with NCI-H460, in the assay with SF-295, with MDA-MB-231, with LOX IMVI, in the assay with Hs-578T and in the assay on MDA-N was > 100 µM (inactive) in each case. The GI50 in the assay on MCF7, with HCT-116, with PC-3, with TK-10, in the assay on NCI-H522 and in the assay on UO-31 was > 100 µM (inactive) in each case. Moreover, the GI50 is > 100 µM (inactive) in the assay on OVCAR-3; > 100 µM (inactive) in the assay with NCI/ADR-RES; > 100 µM (inactive) with HOP-62; > 100 µM (inactive) in the assay with UACC-257; > 100 µM (inactive) with RPMI-8226; 43.1 µM (inactive) in the assay on SK-MEL-28. The GI50 in the assay with HCT-15 was more than 100 µM.

On to `Cc1nn(C(=O)c2ccc(Cl)cc2)c2c1C(c1ccccc1O)SC(=N)N2` (stereo not given), for which the GI50 in the assay with NCI-H460, in the assay on SF-295, in the assay with SK-MEL-2, in the assay with MDA-MB-231, in the assay on LOX IMVI and in the assay on Hs-578T was > 10 µM (inactive) in each case. Also, the GI50 in the assay with MDA-N, in the assay with MCF7, with HCT-116, in the assay with PC-3, in the assay on TK-10 and in the assay with NCI-H522 was > 10 µM (inactive) throughout. Also, the GI50 in the assay with OVCAR-3, in the assay on NCI/ADR-RES, in the assay on HOP-62, in the assay on UACC-257, in the assay on RPMI-8226 and with SK-MEL-28 was > 10 µM (inactive) each time. In addition, the GI50 in the assay on HCT-15 is more than 10 µM.

As for `Cc1nn(C(=O)c2ccncc2)c2c1C(c1cccc([N+](=O)[O-])c1)SC(=N)N2` (stereo not given), the GI50 in the assay with NCI-H460, with SF-295, in the assay with SK-MEL-2, in the assay with MDA-MB-231, in the assay with LOX IMVI and with Hs-578T was > 10 µM (inactive) each time. Further, the GI50 in the assay on MDA-N, with MCF7, in the assay with HCT-116, in the assay on PC-3, in the assay on TK-10 and with NCI-H522 was > 10 µM (inactive) each time. For the same compound, the GI50 with OVCAR-3, with NCI/ADR-RES, in the assay on HOP-62, in the assay on UACC-257, in the assay with RPMI-8226 and in the assay with SK-MEL-28 was > 10 µM (inactive) in each case. The GI50 with HCT-15 is more than 10 µM.

Regarding `Oc1ccccc1C1=NOC(c2ccc(C(F)(F)F)cc2)C1` (stereo not given), the GI50 with NCI-H460 was > 50 µM (inactive); in the assay on SF-295, > 50 µM (inactive); in the assay with SK-MEL-2 it was > 46.1 µM (inactive); in the assay on MDA-MB-231, > 41.6 µM (inactive); with LOX IMVI, > 50 µM (inactive); with Hs-578T it was > 50 µM (inactive). The GI50 with MDA-N is > 50 µM (inactive); with MCF7, 0.665 µM (active); in the assay with HCT-116, > 50 µM (inactive); in the assay on PC-3 it was > 50 µM (inactive); with NCI-H522 it was > 50 µM (inactive); in the assay on OVCAR-3, > 50 µM (inactive). For the same compound, the GI50 in the assay with NCI/ADR-RES, in the assay on HOP-62, with UACC-257, in the assay on RPMI-8226 and in the assay on SK-MEL-28 was > 50 µM (inactive) throughout.
